The values below come from patent US20240072809A1, “ASGPR-BINDING COMPOUNDS FOR THE DEGRADATION OF EXTRACELLULAR PROTEINS” (Avilar Therapeutics, Inc., priority 2020, published 2024).

pKd: −log10 of the molar value. Bridge positions count the residues as written; N and C are the ends. Peptide text beside a SMILES is read from it. * marks the point of attachment. X3 = CO[C@@H]1O[C@H](COCCOCCOCCOCCNC(=O)CCOCC(COCCC(=O)NCCOCCOCCOCCOC[C@H]2O[C@@H](OC)[C@H](NC(C)=O)[C@@H](O)[C@H]2O)(COCCC(=O)NCCOCCOCCOCCOC[C@H]2O[C@@H](OC)[C@H](NC(C)=O)[C@@H](O)[C@H]2O)NC(=O)COCCOCCOCC(=O)*)[C@H](O)[C@H](O)[C@H]1NC(C)=O Where only a bound is given, the exact number is not on record here.

For one experiment, the target named is ASGPR (Homo sapiens (Human), UniProt P07306). Kind of experiment: Affinity to ASGPR measured by surface plasmon resonance (SPR). Format: binding. Particulars: ASGPR ligands, Table 2; Biacore 8K, 25° C., steady state fit; read-out: SPR Binding External Calculation: KD.
Chain of ASGPR (P07306 whole entry): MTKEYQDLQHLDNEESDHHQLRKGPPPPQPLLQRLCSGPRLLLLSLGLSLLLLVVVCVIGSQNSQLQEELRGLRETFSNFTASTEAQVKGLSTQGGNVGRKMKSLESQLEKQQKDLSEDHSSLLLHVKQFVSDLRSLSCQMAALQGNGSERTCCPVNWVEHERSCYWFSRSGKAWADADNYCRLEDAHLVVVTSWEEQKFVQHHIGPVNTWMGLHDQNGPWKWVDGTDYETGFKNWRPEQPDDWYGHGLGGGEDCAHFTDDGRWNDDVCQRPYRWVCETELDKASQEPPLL
The term pKd denotes the Kd on a negative log10 scale, so that one unit is a factor of ten. As to `OC[C@H]1OC[C@@H](CN2CCOCC2)[C@@H](O)[C@H]1O` [Compound A209, (2R,3R,4R,5R)-2-(hydroxymethyl)-5-(morpholinomethyl)tetrahydro-2H-pyran-3,4-diol], the pKd is less than 3.00. Turning to `CO[C@@H]1O[C@H](CO)[C@H](O)[C@H](O)[C@H]1Nc1nc(N2CCOCC2)ns1` [Compound A117, (2R,3R,4R,5R,6R)-2-(hydroxymethyl)-6-methoxy-5-((3-morpholino-1,2,4-thiadiazol-5-yl)amino)tetrahydro-2H-pyran-3,4-diol], the pKd is 3.30 to 4.00.

The same experiment, now with this note: ASGPR ligands, Table 4; class symbols; read-out: ASGPR_PR Binding KD.
For `O=C(N[C@@H]1CO[C@H](CO)[C@H](O)[C@@H]1O)c1ccccc1` [Compound A136, N-((3R,4R,5R,6R)-4,5-dihydroxy-6-(hydroxymethyl)tetrahydro-2H-pyran-3-yl)benzamide], the pKd is 3.30 to 4.00.

Turning to `Nc1nsc(N[C@H]2CO[C@H](CO)[C@H](O)[C@@H]2O)n1` [Compound A341, (2R,3R,4R,5S)-5-((3-amino-1,2,4-thiadiazol-5-yl)amino)-2-(hydroxymethyl)tetrahydro-2H-pyran-3,4-diol], the pKd is more than 4.00. Still for that read-out and setting: the value for `OC[C@@]12CO[C@@H](O1)[C@H](Nc1ncns1)[C@@H](O)[C@H]2O` [Compound A290] was more than 4.00; that for `Cc1cc(C(F)(F)F)nc(N[C@H]2CO[C@H](CO)[C@H](O)[C@@H]2O)n1` [Compound A334] was more than 4.00. Same read-out and setting: in the case of `CN1CCN(c2nsc(N[C@H]3CO[C@H](CO)[C@H](O)[C@@H]3O)n2)CC1` [Compound A338, (2R,3R,4R,5S)-2-(hydroxymethyl)-5-((3-(4-methylpiperazin-1-yl)-1,2,4-thiadiazol-5-yl)amino)tetrahydro-2H-pyran-3,4-diol] it was more than 4.00; in that of `COc1cc(C#N)nc(N[C@H]2[C@H]3OC[C@](CO)(O3)[C@H](O)[C@@H]2O)n1` [Compound A294, 2-(((1S,2R,3R,4R,5S)-2,3-dihydroxy-1-(hydroxymethyl)-6,8-dioxabicyclo[3.2.1]octan-4-yl)amino)-6-methoxypyrimidine-4-carbonitrile], more than 4.00; in that of `OC[C@H]1OC[C@H](Nc2nc(-c3cccnc3)ns2)[C@@H](O)[C@H]1O` [Compound A358, (2R,3R,4R,5S)-2-(hydroxymethyl)-5-((3-(pyridin-3-yl)-1,2,4-thiadiazol-5-yl)amino)tetrahydro-2H-pyran-3,4-diol], more than 4.00. With `OC[C@H]1OC[C@H](Nc2nc3ccccc3s2)[C@@H](O)[C@H]1O` [Compound A354, (2R,3R,4R,5S)-5-(benzo[d]thiazol-2-ylamino)-2-(hydroxymethyl)tetrahydro-2H-pyran-3,4-diol], the pKd is more than 4.00.

Staying with this experiment, now noted: ASGPR ligands, Table 4; numeric lower bounds; read-out: ASGPR_PR Binding KD.
As for `OC[C@H]1OC[C@H](Nc2ccc(C(F)(F)F)nn2)[C@@H](O)[C@H]1O` [Compound A313], the pKd is less than 4.70. As for `OC[C@H]1OC[C@H](Nc2cc(C(F)(F)F)ccn2)[C@@H](O)[C@H]1O` [Compound A356, (2R,3R,4R,5S)-2-(hydroxymethyl)-5-((4-(trifluoromethyl)pyridin-2-yl)amino)tetrahydro-2H-pyran-3,4-diol], the pKd is less than 4.70.

Staying with this experiment, now noted: read-out: ASGPR_SPR Binding KD.
Consider `CO[C@@H]1O[C@H](COCCOCCOCCOCCNC(=O)CCOCC(COCCC(=O)NCCOCCOCCOCCOC[C@H]2O[C@@H](OC)[C@H](NC(C)=O)[C@@H](O)[C@H]2O)(COCCC(=O)NCCOCCOCCOCCOC[C@H]2O[C@@H](OC)[C@H](NC(C)=O)[C@@H](O)[C@H]2O)NC(=O)COCCOCCOCC(=O)N[C@@H](Cc2cnc[nH]2)C(=O)N[C@@H](CCC(N)=O)C(=O)N[C@H](C(=O)N[C@H]2CSSC[C@@H](C(=O)N[C@@H](Cc3ccccc3)C(=O)N[C@@H](CO)C(=O)N[C@H](C(N)=O)[C@@H](C)O)NC(=O)[C@H](C(C)C)NC(=O)[C@@H]3CCCN3C(=O)[C@H](CCCNC(=N)N)NC(=O)CNC(=O)[C@H](CCCNC(=N)N)NC(=O)[C@H](Cc3ccc(O)cc3)NC(=O)[C@H](CO)NC(=O)[C@H](CC(C)C)NC2=O)C(C)C)[C@H](O)[C@H](O)[C@H]1NC(C)=O` [Compound 30] (X3-HQVCLSYRGRPVCFST-NH2; disulfide 4-13), for which the negative logarithm of the Kd (pKd) was more than 4.00.
